Consider 2 compounds from US20050148763A1, “Peg-binding pth or peg-binding pth derivative” (Chugai Seiyaku Kabushiki Kaisha, priority 2002, published 2005).

A short description of data set [1]: Hypercalcemic effect of PEG-[Cys^35]-PTH(1-35) in normal female DDY mice. In kind it is in vivo. Conditions: for Blood iCa level Hour 1: 1 hour after administration; for Blood iCa level Hour 3: 3 hours; for Blood iCa level Hour 6: 6 hours; for Blood iCa level Hour 9: 9 hours; for Blood iCa level Hour 24: 24 hours; for Blood iCa level Hour 0: before administration. The protocol:
2 k, 5 k and 20 k PEG-[Cys^35]-PTH(1-35) were also adjusted similarly to 30, 10 and 2 nmol/mL (calculated as PTH) and allowed to stand on ice immediately before administration.
Using female DDY mice at 6 weeks of age (Japan SLC, Inc.), the corrected level of ionized calcium at pH 7.4 was determined for each sample in the same manner as shown in (1) above. The mice received subcutaneous administration of each drug at a dose of 5 mL/kg. The buffer was administered to a group of 5 mice. […] 150 nmol/kg 2 k, 5 k and 20 k PEG-[Cys^35]-PTH(1-35) were administered to groups of 4 mice each. 50 and 10 nmol/kg 2 k, 5 k and 20 k PEG-[Cys^35]-PTH(1-35) were administered to groups of 5 mice each. At 1, 3, 6, 9 and 24 hours after administration, blood was collected by orbital puncture to monitor the time course of corrected blood ionized calcium levels.

Data set [2] can be described thus: Increasing effect on bone mass in OVX rats. In kind it is in vivo. The protocol: 2 k PEG-[Cys^35]-PTH(1-35) was studied for the increasing effect on bone mass in OVX rats as follows. […] These samples were divided into aliquots and stored at −80° C. until use.
Female SD-IGS rats at 7 weeks of age (Charles River Japan, Inc.) were used, 60 of which were ovariectomized (OVX) to remove both ovaries and 7 of which were sham-operated. After 2 weeks, the ovariectomized rats were measured for their body weight and divided into groups of 6 rats each such that the mean body weights of all groups were identical.
Each drug was given subcutaneously at a dose of 1 ml/kg on a 5 times-a-week basis for 4 weeks. On the last day of administration, the rats were housed in metabolic cages and 24-hour urine was collected from each rat. On the following day, after the rats were euthanized by exsanguination under anesthesia, an autopsy was performed to collect blood, lumbar vertebrae and femurs. The urine and blood were taken into tubes and centrifuged to collect the respective supernatants, which were stored at −20° C. until assayed for parameters. The lumbar vertebrae and right femurs were stored in 70% ethanol. The average bone density of the second to fifth lumbar vertebrae and the bone density of the right femur were measured using a dual X-ray bone mineral densitometer (DCS-600EX, ALOKA).

The nature of data set [3]: Pharmacokinetics in rats by intravenous route. In kind it is in vivo. Conditions: rat, in vivo, 80 μg/mL at 1 mL/kg. How it is done: Each sample was adjusted to 80 μg/mL by dilution with 25 mmol/L citrate-phosphate buffer (pH 5.0) containing 100 mmol/L NaCl and 0.05 vol % Tween 20 to give a solution for administration. Male SD rats at 6 weeks of age (CLEA Japan, Inc.) were provided for this experiment. Intravenous injection was performed on rats having polyethylene tubes (SP-31, Natsume Seisakusho Co., Ltd.) inserted into the femoral artery and vein. The solutions thus prepared were each administered at a dose of 1 mL/kg through a polyethylene tube inserted into the femoral vein, and blood was collected through a polyethylene tube inserted into the femoral artery before administration and at 5, 15, 30 and 45 minutes as well as 1, 2, 4, 6, 8 and 24 hours after administration. Subcutaneous administration was performed on rats having polyethylene tubes inserted into the femoral artery. The solutions prepared above were each subcutaneously administered at a dose of 1 mL/kg to the dorsal neck region of the rats, and blood was collected in the same manner as used for intravenous injection. These blood samples were centrifuged to collect plasma and stored at −40° C. until assayed for PTH(1-34) or PEG-PTH(1-34) levels.
The level of PTH(1-34) or PEG-PTH(1-34) was determined by RIA analysis using a Rat PTH IRMA Kit (Immutopics). A Cobra Quantum Model 5005 gamma counter (Packard) was used to measure radioactivity for each sample. The plasma level of PTH(1-34) or PEG-PTH(1-34) was calculated from a calibration curve prepared using PTH(1-34) or PEG-PTH(1-34). The Winnonlin program Ver. 2.1 (Scientific Consulting Inc.) was used to analyze the time course of changes in the calculated plasma PTH(1-34) or PEG-PTH(1-34) levels (FIG. 3: by intravenous route; FIG. 4: by subcutaneous route) to calculate the following as pharmacokinetic parameters: time required to reach the maximum plasma level (Tmax); maximum plasma level (Cmax); area under the curve of plasma levels (AUC); plasma half-life (t1/2); total body clearance (Cltotal); mean residence time in the body (MRT); and bioavailability (BA). […]

Data set [4] is described as follows: Hypercalcemic effect of PEG-PTH(1-34) in normal female DDY mice. In kind it is in vivo. Conditions: sc, hPTH(1-34) 50-500 nmol/kg, 5 k PEG-PTH(1-34) 150 nmol/kg. The protocol:
2 k and 5 k PEG-PTH(1-34) were also adjusted similarly to 30 nmol/mL (calculated as PTH) and allowed to stand on ice immediately before administration.
Male BDF1 mice at 5 weeks of age (Charles River Japan, Inc.) were measured for their body weight. Immediately before drug administration, blood was collected by orbital puncture into heparinized capillary tubes and measured for baseline levels of blood ionized calcium and pH using a Ca^2+/pH analyzer (Model 348/Bayer Medical Ltd.) to give the corrected level of ionized calcium at pH 7.4 for each sample. The mice received subcutaneous administration of each drug at a dose of 5 mL/kg. […] At 1, 3 and 6 hours after administration, blood was collected by orbital puncture to monitor the time course of corrected blood ionized calcium levels.
The same experiment was repeated on female DDY mice at 5 weeks of age (Charles River Japan, Inc.). The mice received subcutaneous administration of each drug at a dose of 5 mL/kg. […] At 1, 3 and 6 hours after administration, blood was collected by orbital puncture to monitor the time course of corrected blood ionized calcium levels.

The conditions of data set [5]: clinical, single subcutaneous 20-40 μg, at 4 to 6 hours after administration; cited from earlier work.

“2 k PEG-[Cys^35]-hPTH(1-35): [Cys^35]-PTH(1-35) conjugated with mPEG 2 k-MAL (2 kDa methoxy-PEG-maleimide) at the C-terminal cysteine (SVSEIQLMHNLGKHLNSMERVEWLRKKLQDVHNFC; Parathyroid hormone 2 kDa mPEG-maleimide at Cys35; UniProt P01270 32-66, looked up, variant V35C)”: in data set [1] (10 nmol/kg sc), the “Blood iCa level Hour 1” value is given as 1.44 ± 0.03 mM, the “Blood iCa level Hour 3” value was 1.48 ± 0.02 mM, the “Blood iCa level Hour 6” value is listed as 1.39 ± 0.02 mM and the “Blood iCa level Hour 9” value is recorded as 1.32 ± 0.04 mM. Also, in data set [1] (10 nmol/kg sc), the “Blood iCa level Hour 24” value is 1.37 ± 0.02 mM and the “Blood iCa level Hour 0” value is given as 1.30 ± 0.04 mM. Moreover, in data set [1] (50 nmol/kg sc), the “Blood iCa level Hour 1” value was 1.41 ± 0.02 mM, the “Blood iCa level Hour 3” value is 1.47 ± 0.03 mM, the “Blood iCa level Hour 6” value is reported as 1.47 ± 0.02 mM and the “Blood iCa level Hour 9” value is given as 1.29 ± 0.05 mM. In data set [1] (50 nmol/kg sc), the “Blood iCa level Hour 24” value is recorded as 1.34 ± 0.03 mM and the “Blood iCa level Hour 0” value was 1.27 ± 0.03 mM. Moreover, in data set [1] (150 nmol/kg sc), the “Blood iCa level Hour 1” value was 1.44 ± 0.02 mM, the “Blood iCa level Hour 3” value was 1.47 ± 0.05 mM, the “Blood iCa level Hour 6” value is recorded as 1.48 ± 0.05 mM and the “Blood iCa level Hour 9” value is on record as 1.26 ± 0.02 mM. In data set [1] (150 nmol/kg sc), the “Blood iCa level Hour 24” value was 1.34 ± 0.03 mM and the “Blood iCa level Hour 0” value is listed as 1.32 ± 0.02 mM. For the same compound, in data set [1] (female DDY mice, sc), the “increased blood ionized calcium level maintained until” value was 6 h and the “time of maximum increase in blood ionized calcium levels after administration” value was 3 h. The “lumbar and femoral bone density, significance (in words)” value in data set [2] (OVX rats, 7.5, 30 and 120 nmol/kg sc, 4 weeks) is “statistically-significant increases in both lumbar and femoral bone density”. In addition, in data set [2] (OVX rats, sc 5 times a week for 4 weeks), the “lumbar and femoral bone density (in words)” value was “dose-dependent increases in lumbar and femoral bone density”.

Consider `CC[C@H](C)[C@H](NC(=O)[C@H](CCC(=O)O)NC(=O)[C@H](CO)NC(=O)[C@@H](NC(=O)[C@@H](N)CO)C(C)C)C(=O)N[C@@H](CCC(N)=O)C(=O)N[C@@H](CC(C)C)C(=O)N[C@@H](CCSC)C(=O)N[C@@H](Cc1cnc[nH]1)C(=O)N[C@@H](CC(N)=O)C(=O)N[C@@H](CC(C)C)C(=O)NCC(=O)N[C@@H](CCCCN)C(=O)N[C@@H](Cc1cnc[nH]1)C(=O)N[C@@H](CC(C)C)C(=O)N[C@@H](CC(N)=O)C(=O)N[C@@H](CO)C(=O)N[C@@H](CCSC)C(=O)N[C@@H](CCC(=O)O)C(=O)N[C@@H](CCCN=C(N)N)C(=O)N[C@H](C(=O)N[C@@H](CCC(=O)O)C(=O)N[C@@H](Cc1c[nH]c2ccccc12)C(=O)N[C@@H](CC(C)C)C(=O)N[C@@H](CCCN=C(N)N)C(=O)N[C@@H](CCCCN)C(=O)N[C@@H](CCCCN)C(=O)N[C@@H](CC(C)C)C(=O)N[C@@H](CCC(N)=O)C(=O)N[C@@H](CC(=O)O)C(=O)N[C@H](C(=O)N[C@@H](Cc1cnc[nH]1)C(=O)N[C@@H](CC(N)=O)C(=O)N[C@@H](Cc1ccccc1)C(=O)O)C(C)C)C(C)C` [hPTH(1-34), reference compound], for which, in data set [3] (read-out: AUC), the AUC – broadly, the area under the concentration-time curve, a measure of exposure – turned out to be 21.7 ng·h/mL. Moreover, the clearance in data set [3] (read-out: Cltotal (converted)) was 61.7 mL/min/kg. In addition, in data set [3] (read-out: MRT), the MRT (usually the average time that molecules of a dose stay in the body) amounted to 12.7 min. The half-life in data set [3] (read-out: t½ (converted)) is 13.9 min. Moreover, in data set [4], the “time of maximum increase in blood ionized calcium levels after administration” value is 3 h. Moreover, in data set [1] (50 nmol/kg sc), the “Blood iCa level Hour 1” value is reported as 1.45 ± 0.03 mM, the “Blood iCa level Hour 3” value is recorded as 1.43 ± 0.03 mM, the “Blood iCa level Hour 6” value is listed as 1.33 ± 0.02 mM and the “Blood iCa level Hour 9” value is 1.27 ± 0.05 mM. For the same compound, in data set [1] (50 nmol/kg sc), the “Blood iCa level Hour 24” value is listed as 1.36 ± 0.02 mM and the “Blood iCa level Hour 0” value is on record as 1.31 ± 0.03 mM. For the same compound, in data set [1] (150 nmol/kg sc), the “Blood iCa level Hour 1” value is recorded as 1.46 ± 0.02 mM, the “Blood iCa level Hour 3” value is recorded as 1.48 ± 0.03 mM, the “Blood iCa level Hour 6” value was 1.36 ± 0.02 mM and the “Blood iCa level Hour 9” value was 1.32 ± 0.04 mM. For the same compound, in data set [1] (150 nmol/kg sc), the “Blood iCa level Hour 24” value is given as 1.36 ± 0.03 mM and the “Blood iCa level Hour 0” value is listed as 1.33 ± 0.03 mM. In data set [1] (500 nmol/kg sc), the “Blood iCa level Hour 1” value is recorded as 1.44 ± 0.04 mM, the “Blood iCa level Hour 3” value is listed as 1.46 ± 0.04 mM, the “Blood iCa level Hour 6” value is on record as 1.43 ± 0.01 mM and the “Blood iCa level Hour 9” value is reported as 1.27 ± 0.04 mM. Further, in data set [1] (500 nmol/kg sc), the “Blood iCa level Hour 24” value is 1.39 ± 0.02 mM and the “Blood iCa level Hour 0” value is listed as 1.34 ± 0.03 mM. Also, in data set [1] (female DDY mice, sc), the “time of maximum increase in blood ionized calcium levels after administration” value is 3 h. The “blood calcium levels (in words)” value in data set [5] was “transient elevation of blood calcium levels”.
